Common to all, as to assay: biochemical
Holding throughout (design): KINOMEscan scanMAX active site-directed competition binding assay, percent of control, 468 kinases
Holding throughout (conditions): competition binding, percent of control

Experiment [1] concerns the target PRKG2 (Homo sapiens, UniProt Q13237). The protocol:
(§1) The KINOMEscan^TM screening platform (scanMAX assay) employs a proprietary active site-directed competition binding assay that quantitatively measures the interactions between test compounds (here 100 μM S-carvone) and 468 human protein kinases. The assay was performed at Eurofins DiscoverX Corp. (Fremont, CA, USA). Blocking protein kinase C (PKC) activity was reported to inhibit the transcription of CYP1A1 but to exert no effect on the nuclear translocation of AhR[26], which was also the case here with carvones. Therefore, we tested whether carvones inhibit PKC catalytic activity. […] We also evaluated the interaction between 100 μM S-carvone and 468 human protein kinases, employing KINOMEscan^TM (scanMAX assay), a proprietary active site-directed competition binding assay. The minimal inhibitory threshold used by the screening platform KINOMEscan^TM is 35% of the control kinase activity. Among 468 kinases tested, 467 were above the 35% cutoff. Tyrosine kinase 2 TK2 (JH2 domain pseudokinase) activity was inhibited to 27% of the control activity, but this kinase is not relevant to the regulation of transcription activity (Fig. 5B; Figure S9). Overall, we excluded the possibility that the effects of carvones on AhR signaling are caused indirectly by the inhibition of the human kinome, particularly PKC.

Experiment [2] addresses TGFBR1 (Homo sapiens, UniProt P36897). The protocol:
as §1

The target in experiment [3] is PAK6 (Homo sapiens, UniProt Q9NQU5). The protocol:
as §1

In experiment [4] the target is DYRK1A (Homo sapiens, UniProt Q13627). The procedure:
as §1

Experiment [5] has as its target CDK2 (Homo sapiens, UniProt P24941). The protocol:
as §1

For experiment [6], the target named is T1, PFTAIRE2 (Homo sapiens, UniProt Q96Q40).
T1 construct: gene CDK15
The procedure:
as §1

Experiment [7] has as its target T2, MST4 (Homo sapiens, UniProt Q9P289).
T2 construct: gene STK26
The protocol: as §1

The target in experiment [8] is PIKFYVE (Homo sapiens, UniProt Q9Y2I7). The procedure:
as §1

Experiment [9] concerns the target SBK1 (Homo sapiens, UniProt Q52WX2). The procedure: as §1
The target in experiment [10] is INSRR (Homo sapiens, UniProt P14616). The protocol:
as §1

Experiment [11] deals with CDK9 (Homo sapiens, UniProt P50750). The protocol: as §1
The target in experiment [12] is MYLK (Homo sapiens, UniProt Q15746). The procedure: as §1
The target in experiment [13] is T3, SIK (Homo sapiens, UniProt P57059).
T3 construct: gene SIK1
The procedure: as §1

Experiment [14] concerns the target RIOK2 (Homo sapiens, UniProt Q9BVS4). The procedure:
as §1

The target of experiment [15] is T4, YES (Homo sapiens, UniProt P07947).
T4 construct: gene YES1
The protocol:
as §1

Experiment [16] addresses T5, RSK3(Kin.Dom.2-C-terminal) (Homo sapiens, UniProt Q15349).
T5 construct: gene RPS6KA2; Kin.Dom.2-C-terminal
The procedure: as §1

Experiment [17] concerns the target SLK (Homo sapiens, UniProt Q9H2G2). The protocol:
as §1

The target of experiment [18] is BRAF(V600E) (Homo sapiens, UniProt P15056, V600E). The protocol:
as §1

Experiment [19] deals with EGFR(S752-I759del) (Homo sapiens, UniProt P00533, DEL752-759). The protocol: as §1
The target of experiment [20] is CSNK1G2 (Homo sapiens, UniProt P78368). The procedure: as §1
The target of experiment [21] is BRAF (Homo sapiens, UniProt P15056). The procedure: as §1
Experiment [22] concerns the target T6, ERK5 (Homo sapiens, UniProt Q13164).
T6 construct: gene MAPK7
The procedure: as §1

Chain of BRAF (P15056 whole entry): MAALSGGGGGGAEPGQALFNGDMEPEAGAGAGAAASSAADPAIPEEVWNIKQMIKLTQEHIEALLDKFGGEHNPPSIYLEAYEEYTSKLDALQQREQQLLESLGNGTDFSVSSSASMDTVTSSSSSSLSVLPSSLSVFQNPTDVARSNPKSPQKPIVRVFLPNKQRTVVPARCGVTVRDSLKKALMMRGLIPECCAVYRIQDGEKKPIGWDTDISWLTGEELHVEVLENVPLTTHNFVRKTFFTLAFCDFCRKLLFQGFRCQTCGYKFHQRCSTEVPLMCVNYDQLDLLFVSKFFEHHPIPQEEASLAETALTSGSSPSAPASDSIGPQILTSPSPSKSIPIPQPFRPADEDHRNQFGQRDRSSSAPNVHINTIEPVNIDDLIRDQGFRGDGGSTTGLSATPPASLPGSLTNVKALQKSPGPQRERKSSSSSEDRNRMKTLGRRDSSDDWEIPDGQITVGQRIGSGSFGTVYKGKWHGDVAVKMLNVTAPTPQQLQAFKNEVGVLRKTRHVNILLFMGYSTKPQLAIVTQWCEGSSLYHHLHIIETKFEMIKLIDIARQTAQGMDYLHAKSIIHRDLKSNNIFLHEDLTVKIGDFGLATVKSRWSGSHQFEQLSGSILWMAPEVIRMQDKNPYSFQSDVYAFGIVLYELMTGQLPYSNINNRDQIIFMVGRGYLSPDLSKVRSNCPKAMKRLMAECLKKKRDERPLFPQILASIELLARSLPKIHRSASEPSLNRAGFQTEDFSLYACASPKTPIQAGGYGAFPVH
Chain of BRAF(V600E) (P15056 whole entry V600E): as the sequence (P15056 whole entry) above, with V600E counted along it
T2 sequence (Q9P289 whole entry): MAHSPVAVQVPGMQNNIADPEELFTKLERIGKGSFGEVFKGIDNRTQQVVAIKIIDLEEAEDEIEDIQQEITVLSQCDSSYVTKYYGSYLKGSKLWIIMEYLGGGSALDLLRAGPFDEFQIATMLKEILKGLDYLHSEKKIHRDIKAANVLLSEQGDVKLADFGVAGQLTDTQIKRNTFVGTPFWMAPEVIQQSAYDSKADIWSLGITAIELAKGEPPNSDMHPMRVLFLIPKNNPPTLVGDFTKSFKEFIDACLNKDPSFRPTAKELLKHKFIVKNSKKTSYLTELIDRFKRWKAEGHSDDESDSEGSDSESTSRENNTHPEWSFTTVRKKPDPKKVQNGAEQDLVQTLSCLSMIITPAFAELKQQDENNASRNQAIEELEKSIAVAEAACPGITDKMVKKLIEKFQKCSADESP
Chain of SBK1 (Q52WX2 whole entry): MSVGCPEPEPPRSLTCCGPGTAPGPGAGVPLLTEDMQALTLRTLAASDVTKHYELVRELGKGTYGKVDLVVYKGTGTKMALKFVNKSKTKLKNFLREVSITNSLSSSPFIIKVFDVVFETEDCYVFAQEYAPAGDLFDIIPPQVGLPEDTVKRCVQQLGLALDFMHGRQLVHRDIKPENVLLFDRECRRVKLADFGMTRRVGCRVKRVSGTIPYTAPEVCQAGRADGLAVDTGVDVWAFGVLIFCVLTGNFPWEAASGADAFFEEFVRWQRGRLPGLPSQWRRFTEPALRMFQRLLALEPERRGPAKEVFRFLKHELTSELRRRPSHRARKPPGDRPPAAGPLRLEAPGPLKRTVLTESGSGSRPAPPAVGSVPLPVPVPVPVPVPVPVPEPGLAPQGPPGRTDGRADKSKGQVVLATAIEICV
T5 sequence (Q15349 whole entry): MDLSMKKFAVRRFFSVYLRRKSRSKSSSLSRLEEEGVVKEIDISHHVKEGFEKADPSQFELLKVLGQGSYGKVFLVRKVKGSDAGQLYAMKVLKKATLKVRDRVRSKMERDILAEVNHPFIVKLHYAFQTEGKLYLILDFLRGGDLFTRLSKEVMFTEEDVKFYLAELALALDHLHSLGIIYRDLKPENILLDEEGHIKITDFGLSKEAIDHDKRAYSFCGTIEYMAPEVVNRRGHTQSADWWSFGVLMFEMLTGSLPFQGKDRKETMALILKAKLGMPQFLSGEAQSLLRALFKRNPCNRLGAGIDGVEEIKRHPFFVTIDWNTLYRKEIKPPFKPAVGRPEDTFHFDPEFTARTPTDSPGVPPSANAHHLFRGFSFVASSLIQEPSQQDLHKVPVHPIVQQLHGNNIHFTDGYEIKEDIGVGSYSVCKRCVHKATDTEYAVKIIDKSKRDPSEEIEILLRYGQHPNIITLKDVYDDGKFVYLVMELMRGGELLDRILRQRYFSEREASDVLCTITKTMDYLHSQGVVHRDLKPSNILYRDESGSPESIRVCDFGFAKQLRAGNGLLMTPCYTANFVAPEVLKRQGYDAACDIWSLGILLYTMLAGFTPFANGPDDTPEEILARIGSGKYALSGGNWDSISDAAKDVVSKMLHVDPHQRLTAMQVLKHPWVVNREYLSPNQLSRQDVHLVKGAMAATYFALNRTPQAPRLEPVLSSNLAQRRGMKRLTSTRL
T3 sequence (P57059 whole entry): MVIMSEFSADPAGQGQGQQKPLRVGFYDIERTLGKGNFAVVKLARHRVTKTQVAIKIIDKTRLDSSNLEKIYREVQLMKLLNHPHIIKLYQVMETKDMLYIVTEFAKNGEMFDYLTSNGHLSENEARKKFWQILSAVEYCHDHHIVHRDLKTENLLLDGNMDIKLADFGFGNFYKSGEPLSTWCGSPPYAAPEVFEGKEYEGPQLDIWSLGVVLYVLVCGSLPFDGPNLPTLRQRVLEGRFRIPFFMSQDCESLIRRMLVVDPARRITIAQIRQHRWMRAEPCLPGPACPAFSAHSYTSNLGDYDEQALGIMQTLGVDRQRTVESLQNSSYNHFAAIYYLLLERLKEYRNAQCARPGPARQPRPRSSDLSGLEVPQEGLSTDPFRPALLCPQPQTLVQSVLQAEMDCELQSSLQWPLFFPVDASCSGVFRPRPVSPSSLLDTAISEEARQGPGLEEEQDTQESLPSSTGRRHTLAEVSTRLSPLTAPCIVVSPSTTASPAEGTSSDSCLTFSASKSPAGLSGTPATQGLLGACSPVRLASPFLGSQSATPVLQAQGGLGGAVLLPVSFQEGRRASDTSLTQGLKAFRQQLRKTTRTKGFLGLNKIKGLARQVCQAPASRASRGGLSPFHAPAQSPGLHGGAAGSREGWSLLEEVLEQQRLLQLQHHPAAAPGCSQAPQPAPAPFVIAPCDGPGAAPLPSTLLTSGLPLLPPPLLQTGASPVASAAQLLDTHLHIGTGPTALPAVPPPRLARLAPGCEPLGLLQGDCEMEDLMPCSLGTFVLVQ
Chain of SLK (Q9H2G2 whole entry): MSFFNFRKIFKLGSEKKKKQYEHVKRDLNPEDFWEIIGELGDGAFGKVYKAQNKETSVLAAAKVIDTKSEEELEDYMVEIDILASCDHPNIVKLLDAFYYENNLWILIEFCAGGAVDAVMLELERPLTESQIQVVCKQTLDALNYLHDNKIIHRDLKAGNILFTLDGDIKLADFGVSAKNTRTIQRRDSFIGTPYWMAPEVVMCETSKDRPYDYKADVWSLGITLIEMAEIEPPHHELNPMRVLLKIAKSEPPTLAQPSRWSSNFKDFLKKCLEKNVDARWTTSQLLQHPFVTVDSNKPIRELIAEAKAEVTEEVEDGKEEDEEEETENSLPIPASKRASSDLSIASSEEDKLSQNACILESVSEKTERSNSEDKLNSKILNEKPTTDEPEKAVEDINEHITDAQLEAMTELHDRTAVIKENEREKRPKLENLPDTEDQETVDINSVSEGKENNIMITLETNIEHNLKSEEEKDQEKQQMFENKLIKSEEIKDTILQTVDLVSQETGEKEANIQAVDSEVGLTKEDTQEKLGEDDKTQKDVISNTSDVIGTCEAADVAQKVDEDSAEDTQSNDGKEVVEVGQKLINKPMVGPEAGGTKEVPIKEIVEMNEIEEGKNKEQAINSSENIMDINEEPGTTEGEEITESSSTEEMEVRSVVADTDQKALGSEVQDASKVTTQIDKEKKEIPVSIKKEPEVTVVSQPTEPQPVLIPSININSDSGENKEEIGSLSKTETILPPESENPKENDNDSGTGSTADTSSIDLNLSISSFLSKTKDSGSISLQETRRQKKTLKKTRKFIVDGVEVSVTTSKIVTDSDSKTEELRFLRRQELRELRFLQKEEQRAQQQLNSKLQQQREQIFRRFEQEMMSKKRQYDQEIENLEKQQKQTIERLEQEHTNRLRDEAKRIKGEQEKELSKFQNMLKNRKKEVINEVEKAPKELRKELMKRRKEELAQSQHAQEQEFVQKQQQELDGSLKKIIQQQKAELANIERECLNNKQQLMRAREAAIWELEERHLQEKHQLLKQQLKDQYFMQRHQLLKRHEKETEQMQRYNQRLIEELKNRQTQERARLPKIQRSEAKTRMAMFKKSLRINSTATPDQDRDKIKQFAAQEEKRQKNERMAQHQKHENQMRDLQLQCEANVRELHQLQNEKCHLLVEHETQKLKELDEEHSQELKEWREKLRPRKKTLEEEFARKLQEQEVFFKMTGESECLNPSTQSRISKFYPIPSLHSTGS
T1 sequence (Q96Q40 whole entry): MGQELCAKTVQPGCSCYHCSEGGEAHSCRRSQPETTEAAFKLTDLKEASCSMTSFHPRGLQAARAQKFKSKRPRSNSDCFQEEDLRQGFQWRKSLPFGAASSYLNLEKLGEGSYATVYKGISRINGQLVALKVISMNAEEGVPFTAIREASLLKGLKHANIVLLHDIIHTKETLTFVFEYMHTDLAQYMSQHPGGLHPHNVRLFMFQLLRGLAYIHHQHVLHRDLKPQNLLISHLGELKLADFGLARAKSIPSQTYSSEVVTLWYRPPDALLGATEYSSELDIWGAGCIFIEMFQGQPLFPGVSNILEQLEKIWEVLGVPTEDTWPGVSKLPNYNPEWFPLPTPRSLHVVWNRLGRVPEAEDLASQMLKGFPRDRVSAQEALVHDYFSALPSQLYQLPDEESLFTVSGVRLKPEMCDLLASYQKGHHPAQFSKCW

Consider `C=C(C)[C@H]1CC=C(C)C(=O)C1` [S-carvone], for which the remaining binding at 100 µM was 76% in experiment [1]; 100% in [2]; 98% in experiment [3]; 91% in experiment [4]; 85% in experiment [5]; 87% in [6]. Further, the remaining binding at 100 µM in experiment [7] amounted to 100%; in experiment [8], 100%; in experiment [9], 100%; in experiment [10] it was 84%; in experiment [11] it was 85%; in experiment [12], 51%. Also, the remaining binding at 100 µM in [13] turned out to be 67%; in experiment [14], 90%; in [15] it was 84%; in experiment [16] it was 63%; in experiment [17], 78%; in experiment [18], 90%. For the same compound, the remaining binding at 100 µM in [19] came out at 66%; in [20] it was 87%; in [21] it was 83%; in [22] it was 93%.

Source of the values: PMC10174618, “Monoterpenoid aryl hydrocarbon receptor allosteric antagonists protect against ultraviolet skin damage in female mice” (Nature Communications, 2023).
